# Values of other authors, collected in patent US12465571B2, “Solid dosage form” (University of Lancashire, priority 2016, dated 2025).
# Conditions: high solubility and high permeability
smiles,measurement,value
"Cn1c(=O)c2[nH]cnc2n(C)c1=O [theophylline, Theophylline]",Biopharmaceutical Classification System class,class I
